Assay results reported in publication PMC2700083, “A covalent peptide inhibitor of RGS4 identified in a focused one-bead, one compound library screen” (BMC Pharmacology, 2009).
Read-outs that look alike come from different tables or passages of the source. Marks after values point to notes of the source that are not given here. Where a SMILES comes first, the peptide text is derived from it. Bridges are numbered along the chain shown (N, C = ends).

Columns and labels:
RGS4Δ51N = biological target: T1, RGS4Δ51N (Rattus norvegicus, UniProt P49799); experiment: MALDI MS analysis of covalent adduct with RGS4Δ51N; details: 250 μM 5nd
T1 construct: MBP (N, cleaved yes); His6 (N, cleaved yes); made in house
T1 sequence (P49799 52-205 limits assumed): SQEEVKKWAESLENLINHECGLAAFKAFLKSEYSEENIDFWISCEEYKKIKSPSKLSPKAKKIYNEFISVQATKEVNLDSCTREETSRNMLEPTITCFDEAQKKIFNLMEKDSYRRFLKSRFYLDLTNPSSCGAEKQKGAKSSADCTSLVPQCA
Protocol: To directly test for the formation of a covalent adduct between 5nd and RGS4, we performed mass spectrometry (MS) analysis. The RGS4Δ51N protein, following TEV-protease cleavage from the MBP-His6 construct, was treated with 5nd at a 50:1 molar ratio. An adduct to the protein that is consistent with the mass of 5nd binding through a disulfide bridge was observed by MS (Figure 4, mass shift observed: Δ999.2 ± 1; expected: Δ998.5). […] There is also a small peak that may represent two peptides per RGS (observed: Δ1999.1 ± 2; expected: Δ1997.0).
Figure 4 MS analysis of RGS4 with and without 5nd pretreatment. RGS4Δ51N was cleaved from the MBP-His6 construct and subject to MALDI MS after pretreatment with DMSO (A) or 5nd (250 μM) (B). Both spectra show the region between 4,000 and 30,000 m/z and have the peak at 18158.8 or 18158.2 m/z for A and B, respectively, which corresponds to the cleaved RGS4Δ51N protein (black arrows). The spectrum in B also has a peak at 19158 m/z that corresponds to a peptide adduct (grey arrows). There is a very small peak at 20157.9 that may correspond to 2 peptides per RGS (grey arrows). The inset is a blow-up of the region between 17500 and 20500 m/z.
Total mass MS of 5 μM RGS4Δ51N was analyzed on a MicroMX MALDI MS instrument in positive ion mode with an accuracy of ± 0.1% after pretreatment with DMSO or 250 μM 5nd. […]

RGS8 = biological target: T2, RGS8 (Homo sapiens, UniProt P57771); experiment: FCPIA, Gαo binding to RGS8
T2 construct: RGS8 full length; made in house
T2 sequence (P57771 1-180): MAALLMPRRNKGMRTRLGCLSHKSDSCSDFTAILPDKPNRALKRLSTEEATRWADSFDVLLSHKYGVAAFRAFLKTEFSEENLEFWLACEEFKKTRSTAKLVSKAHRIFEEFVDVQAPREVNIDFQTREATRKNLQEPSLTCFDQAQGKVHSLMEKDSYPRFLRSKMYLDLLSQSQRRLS
Protocol: (§1) We recently described a bead-based screen in which 2.5 × 10^6 different peptide sequences were prepared as a OBOC library. Fluorescently labeled RGS4 was used to probe the library for peptides that bind RGS4 [5]. […] Since the majority of those hit peptides could bind tightly to the RGS without disrupting GAP activity, they were also tested in the flow cytometry protein interaction assay (FCPIA) (Figure 1), which measures the interaction between RGS4 and Gαo. In this method we used a Luminex flow cytometer to detect the binding of Alexa Fluor 532-labeled Gαo to biotinylated RGS4 on avidin beads in the presence of AMF (AlCl3, MgCl2, NaF and GDP) to put the Gα subunit into a transition state-like conformation. Peptides were tested at 50 μM except where limited by solubility (Table 1).
5nd inhibited Gαo binding to a number of different RGS proteins (Figure 2). […] RGS19 and RGS7 are in the RZ and R7 families, respectively and show less inhibition by 5nd. Linear as well as bridged versions of peptide 5 were tested in the FCPIA since cyclization yields would most likely have been less then 100% in the synthesis of the library leaving some linear peptides present on each bead. […] This may be due to lack of structural rigidity necessary for the correct interaction of the peptide with the RGS protein or a role for chemical reactivity of the disulfide.
Figure 2 Characterization of hit 5. A) and B) Dose response curves for 5nd in the FCPIA with different RGS proteins (RGS Family), (mean ± S.E.M., n = 3) *p < 0.05, **p < 0.01, ***p < 0.001 compared to RGS4 at the same 5nd concentration. C) Peptides were tested at 50 μM as in Figure 1, (mean ± S.E.M., n ≥ 3) *p < 0.05, **p < 0.01, ***p < 0.001 compared to no peptide.
Figure 3 Irreversibility experiments. RGS-biotin on avidin beads was treated with 5nd (100 μM) or 5nm (100 μM) and then washed in buffer (with or without 1 mM DTT) or not washed and put in the FCPIA using RGS4 (A) or RGS8 (B) (mean ± S.E.M., n ≥ 2) *p < 0.05, **p < 0.01, ***p < 0.001 compared to no peptide (100%); #p < 0.05, ##p < 0.01, ###p < 0.001 compared to 5nd no wash.
Proteins were expressed, purified and labeled as described previously. The mutagenesis was done using the "QuickChange Multi Site-Directed Mutagenesis Kit" from Stratagene according to the manufacturer's protocol. The construct of RGS4 used in these studies is a maltose binding protein (MBP-) fusion protein of the RGS4 sequence from which the amphipathic N-terminal helix has been removed (i.e. MBP-RGS4Δ51N). For simplicity in the text, this will be referred to as RGS4. All other RGS proteins were human sequences and were used as Mpb fusions: RGS7 RGS domain (aa: 305–453), RGS8 full length, RGS16 full length, and RGS19ΔC11 (amino acids 1–209). […]

RGS4 [1] = biological target: T3, RGS4 (Rattus norvegicus, UniProt P49799); experiment: FCPIA (flow cytometry protein interaction assay), RGS4-Gαo interaction, wild type RGS4 (MBP-RGS4Δ51N); assay type: binding; details: 100 μM
T3 construct: made in house
T3 sequence (P49799 52-205 limits assumed): T1 sequence (P49799 52-205 limits assumed)

RGS4 [2] = biological target: T3, RGS4; experiment: as above; assay type: binding; details: peptide 50 μM; 25 nM Gαo-Alexa Fluor-532, 5 nM RGS4-biotin
Protocol: as §1
Figure 1 Hit peptides in the FCPIA. Hit peptides from Roof, et al. 2008 were tested at 50 μM unless otherwise indicated for ability to disrupt the RGS4-Gαo interaction as described using 25 nM Gα o-Alexa Fluor-532 and 5 nM wild type RGS4-biotin (mean ± S.E.M., n ≥ 3) *p < 0.05, **p < 0.01, ***p < 0.001 compared to no peptide.
Proteins were expressed, purified and labeled as described previously. The mutagenesis was done using the "QuickChange Multi Site-Directed Mutagenesis Kit" from Stratagene according to the manufacturer's protocol. The construct of RGS4 used in these studies is a maltose binding protein (MBP-) fusion protein of the RGS4 sequence from which the amphipathic N-terminal helix has been removed (i.e. MBP-RGS4Δ51N). For simplicity in the text, this will be referred to as RGS4. All other RGS proteins were human sequences and were used as Mpb fusions: RGS7 RGS domain (aa: 305–453), RGS8 full length, RGS16 full length, and RGS19ΔC11 (amino acids 1–209). To cleave RGS4Δ51N from the MBP-His6 construct for MS analysis, MBP-His6-RGS4Δ51N was treated with 15% MBP-His6-TEV protease S219V [11] for 22 hours at 4°C and purified over a Ni-NTA column.
FCPIA was performed as previously published.

## CC(C)C[C@@H]1NC(=O)CNC(=O)[C@H](CCCCN)NC(=O)[C@@H](NC(=O)[C@H](Cc2c[nH]c3ccccc23)NC(=O)[C@@H](N)Cc2ccc(O)cc2)CSSC[C@@H](C(=O)N[C@@H](CCCCN)C(N)=O)NC1=O [Peptide 5nd, Tyr-Trp-c [Cys-Lys-Gly-Leu-Cys]-Lys-NH2, S-S] (H-YWCKGLCK-NH2; disulfide 3-7)
RGS4Δ51N; 5 μM RGS4Δ51N (50:1), expected Δ998.5
  mass shift observed, adduct of one peptide per RGS: 999.2 ± 1
RGS4Δ51N; 5 μM RGS4Δ51N, expected Δ1997.0
  mass shift observed, small peak that may represent two peptides per RGS: 1999.1 ± 2
RGS8; beads washed in buffer with 1 mM DTT, read-out: percent inhibition, RGS8, DTT wash
  inhibition at 100 µM: 10 ± 3%
RGS8; beads washed in buffer without DTT, read-out: percent inhibition, RGS8, wash
  inhibition at 100 µM: 50 ± 3%
RGS8; no wash, read-out: percent inhibition, RGS8
  inhibition at 100 µM: 64 ± 2%
RGS4 [1]; beads washed in buffer with 1 mM DTT, read-out: percent inhibition of RGS4-Gαo after DTT wash
  inhibition at 100 µM: 15 ± 4%
RGS4 [1]; beads washed in buffer without DTT, read-out: percent inhibition of RGS4-Gαo remaining after washing of the beads
  inhibition at 100 µM: 75 ± 11%
RGS4 [2]
  % Inhibition of RGS4-Gαo: 80 ± 5*** %
